{"source": "patent US20240261333A1", "about": "“NOVEL TARGETS FOR ENHANCING ANTI-TUMOR IMMUNITY” (THE BROAD INSTITUTE, INC., priority 2021, published 2024)", "key": {"[1]": {"system": "CCLF_MELM_0011_T primary patient-derived melanoma model", "assay": "T cell cytotoxicity assay, primary patient-derived melanoma model against AXL or HER2 CAR T cells", "assay_type": "cell-based, human", "conditions": "CCLF_MELM_0011_T treated with small molecule inhibitor", "method": "Expanded T cells were thawed and maintained in culture media for 8-10 h before incubation with cancer cells. Cancer cells were seeded in 96-well plates and allowed to attach for 3-4 h before T cells were added at the appropriate effector to target cell (E:T) ratio. Paired controls with no T cells added were included for each condition. After 18 h, cancer cells were washed twice with PBS to remove T cells, passaged, and cultured for 2 days. Primary patient-derived cell models were not passaged after T cell co-culture. Viability was measured using CellTiter-Glo (Promega G7571). For each E:T ratio, percent survival was calculated as viability of the cells incubated with T cells divided by viability of the paired control that was not incubated with T cells. For example, CD274-overexpressing melanoma cells that were co-cultured with ESO T cells were compared to CD274-overexpressing melanoma cells that were cultured without T cells in parallel. As an alternative cytotoxicity assay, A375 cells stably expressing Gaussia luciferase were co-cultured with ESO T cells. At each time point, 10% of cell culture media was used for the Gaussia luciferase assay (Targeting Systems GAR-2B) to directly measure cytotoxicity. […]"}, "[2]": {"molecular_target": "T1, human endoplasmic reticulum a-1,2-mannosidase I (Homo sapiens, UniProt Q9UKM7)", "T1 sequence (Q9UKM7 1-699)": "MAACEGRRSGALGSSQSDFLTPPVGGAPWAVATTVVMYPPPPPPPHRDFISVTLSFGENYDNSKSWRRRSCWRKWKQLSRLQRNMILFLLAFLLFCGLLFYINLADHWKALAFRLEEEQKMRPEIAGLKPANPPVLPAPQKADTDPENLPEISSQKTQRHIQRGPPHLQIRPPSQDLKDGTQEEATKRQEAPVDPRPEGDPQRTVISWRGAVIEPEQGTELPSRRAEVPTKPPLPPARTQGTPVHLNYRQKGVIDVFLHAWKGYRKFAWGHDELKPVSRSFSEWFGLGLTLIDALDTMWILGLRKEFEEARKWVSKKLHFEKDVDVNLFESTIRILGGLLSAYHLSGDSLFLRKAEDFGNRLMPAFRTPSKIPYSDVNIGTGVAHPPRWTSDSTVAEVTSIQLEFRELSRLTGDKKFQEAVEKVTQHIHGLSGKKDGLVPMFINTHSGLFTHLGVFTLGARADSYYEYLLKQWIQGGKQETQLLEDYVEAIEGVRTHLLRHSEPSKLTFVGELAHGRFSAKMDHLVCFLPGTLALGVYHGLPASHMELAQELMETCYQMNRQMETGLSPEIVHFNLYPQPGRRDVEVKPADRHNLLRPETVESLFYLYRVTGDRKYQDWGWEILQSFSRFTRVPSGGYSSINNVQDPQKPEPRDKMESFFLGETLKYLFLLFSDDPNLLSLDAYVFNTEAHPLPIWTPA", "conditions": "human enzyme; cited from earlier work"}, "[3]": {"system": "A375 (NY-ESO-1+, HLA-A2+) melanoma cells", "assay": "T cell cytotoxicity assay (CellTiter-Glo), A375 against ESO T cells", "assay_type": "cell-based, human", "method": "Expanded T cells were thawed and maintained in culture media for 8-10 h before incubation with cancer cells. Cancer cells were seeded in 96-well plates and allowed to attach for 3-4 h before T cells were added at the appropriate effector to target cell (E:T) ratio. Paired controls with no T cells added were included for each condition. After 18 h, cancer cells were washed twice with PBS to remove T cells, passaged, and cultured for 2 days. Primary patient-derived cell models were not passaged after T cell co-culture. Viability was measured using CellTiter-Glo (Promega G7571). For each E:T ratio, percent survival was calculated as viability of the cells incubated with T cells divided by viability of the paired control that was not incubated with T cells. For example, CD274-overexpressing melanoma cells that were co-cultured with ESO T cells were compared to CD274-overexpressing melanoma cells that were cultured without T cells in parallel. As an alternative cytotoxicity assay, A375 cells stably expressing Gaussia luciferase were co-cultured with ESO T cells. At each time point, 10% of cell culture media was used for the Gaussia luciferase assay (Targeting Systems GAR-2B) to directly measure cytotoxicity.\nFor glycosylation inhibition, cells were treated with 20 μg/mL Kifunensine (Cayman Chemical 10009437) or 2 mM Benzyl 2-acetamido-2-deoxy-alpha-D-galactopyranoside (BAG; Millipore Sigma B4894-100MG) for 48 h to inhibit N- and O-glycosylation respectively unless otherwise indicated. For MCL1 inhibition, cells were treated with 1-10 μM of S63845 (Selleck Chemicals S8383) or AZD5991 (Selleck Chemicals S8643) for 4 h before incubation with T cells. Both glycosylation and MCL1 inhibitors were maintained at indicated concentrations during co-culture with T cells."}}}
{"smiles": "O=C1N[C@@H]2[C@@H](O)[C@@H](O)[C@H](O)[C@@H](CO)N2C1=O", "note": "[kifunensine]", "values": [{"measurement": "Cell survival against T cell cytotoxicity, primary patient-derived melanoma model", "setting": "[1]", "result": "reduced survival"}, {"measurement": "Ki", "setting": "[2]", "result": 130, "unit": "nM"}, {"measurement": "Cell survival against T cell cytotoxicity, A375", "setting": "[3]; A375 treated with small molecule inhibitor", "result": "reduced survival"}, {"measurement": "Cell survival against T cell cytotoxicity", "setting": "[3]; B3GNT2-overexpressing A375 pretreated with inhibitor, E:T ratio of 3, kifunensine having a stronger effect", "result": "reduced A375 survival"}]}
